Source: PubChem BioAssay (NCI)
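Five compound concentrations were applied to cells in 96-well plates for 48 hours; endpoints were derived by simple linear interpolation of the resulting dose-response curve. TGI is the concentration that stops growth completely.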 Peptide text beside a SMILES is read from it. * marks the point of attachment. Cbz = O=C(OCc1ccccc1)*

Experiments:
Assay in all cases: inhibition of tumour cell growth, NCI panel, 48 h
SNB-75 CNS = system: SNB-75 CNS
MDA-MB-435 = system: MDA-MB-435
RXF 393 renal = system: RXF 393 renal
NCI/ADR-RES ovarian = system: NCI/ADR-RES ovarian
UO-31 renal = system: UO-31 renal
M14 melanoma = system: M14 melanoma
IGROV1 ovarian = system: IGROV1 ovarian
MDA-N = system: MDA-N
NCI-H23 lung = system: NCI-H23 lung
HCT-15 colon = system: HCT-15 colon
SW-620 colon = system: SW-620 colon
EKVX NSCLC = system: EKVX NSCLC
HS 578T breast = system: HS 578T breast
A498 renal = system: A498 renal
SK-OV-3 ovarian = system: SK-OV-3 ovarian
RPMI-8226 leukemia = system: RPMI-8226 leukemia
OVCAR-3 ovarian = system: OVCAR-3 ovarian

Row | Structure (SMILES) | TGI (SNB-75 CNS) [µM] | TGI (MDA-MB-435) [µM] | TGI (RXF 393 renal) [µM] | TGI (NCI/ADR-RES ovarian) [µM] | TGI (UO-31 renal) [µM] | TGI (M14 melanoma) [µM] | TGI (IGROV1 ovarian) [µM] | TGI (MDA-N) [µM] | TGI (NCI-H23 lung) [µM] | TGI (HCT-15 colon) [µM] | TGI (SW-620 colon) [µM] | TGI (EKVX NSCLC) [µM] | TGI (HS 578T breast) [µM] | TGI (A498 renal) [µM] | TGI (SK-OV-3 ovarian) [µM] | TGI (RPMI-8226 leukemia) [µM] | TGI (OVCAR-3 ovarian) [µM]
1 | COc1ccc(-c2n[nH]c3nc4ccccc4n3c2=O)cc1 | > 100 | > 100 | > 100 | > 100 | > 100 | > 100 | > 100 | > 100 | > 100 | > 100 | > 100 | > 100 | > 100 | > 100 | – | – | –
2 | N#CCc1nc(-c2cc3ccc(O)cc3oc2=O)cs1 | > 100 | > 100 | > 100 | > 100 | > 100 | > 100 | > 100 | > 100 | – | > 100 | > 100 | > 100 | > 100 | – | > 100 | 81.2 | –
3 | O=C1/C(=C\c2cccc(Oc3ccccc3)c2)SC(c2ccccc2)N1Cc1ccccc1 (centres undefined) | – | 76.2 | 64 | 74.4 | > 100 | 66.7 | – | 52.3 | 62.7 | > 100 | > 100 | > 100 | 82.5 | > 100 | 71.9 | 57.4 | 70
4 | CCOC(=O)c1nc2ccc(C(F)(F)F)cc2nc1NCc1ccc(F)cc1 | > 100 | > 100 | > 100 | > 100 | > 100 | > 100 | 77.3 | > 100 | > 100 | > 100 | > 100 | > 100 | 86.5 | – | > 100 | > 100 | > 100
5 | COc1cccc(C=C(C#N)C#N)c1OC | > 100 | – | > 100 | > 100 | > 100 | > 100 | > 100 | > 100 | > 100 | > 100 | > 100 | > 100 | – | – | > 100 | > 100 | > 100
6 | COC(=O)C(Cc1ccccc1)NP(=O)(O)OCC1OC(n2ccc(N)nc2=O)C(O)C1O (centres undefined) | > 100 | > 100 | – | > 100 | > 100 | > 100 | > 100 | > 100 | > 100 | > 100 | > 100 | > 100 | > 100 | > 100 | > 100 | > 100 | > 100
7 | O=C1CCCc2cc3c(cc21)CC1(C3)Cc2cc3c(cc2C1)C(=O)CCC3 | > 100 | – | > 29.3 | 6.65 | 81.4 | 11.8 | 84.6 | – | 31.7 | > 59.6 | > 100 | > 100 | > 100 | 53.6 | > 44.7 | 15.6 | 7.2
8 | CC(=O)NC(CCCCN(Cc1ccccc1)C(=O)N(C)N=O)C(=O)NCc1ccccc1 (centres undefined) | 86.9 | – | > 100 | – | > 100 | > 100 | > 100 | – | > 100 | > 100 | > 100 | > 100 | – | > 100 | > 100 | > 100 | > 100
9 | Cc1ccc([N+](=O)[O-])cc1NC(=O)/C(CC(=O)c1sc(C(N)=S)nc1C)=N\N | > 100 | – | > 100 | – | > 100 | > 100 | > 100 | – | 83.8 | > 100 | > 100 | > 100 | – | > 100 | > 100 | > 100 | 80.7
10 | O=C(c1ccccc1)N1CCC(Nc2cccnc2)O1 (centres undefined) | – | > 100 | > 100 | > 100 | > 100 | > 100 | > 100 | > 100 | > 100 | > 100 | > 100 | > 100 | > 100 | > 100 | > 100 | – | > 100
11 | CN1C(CC(O)c2ccccc2)CCCC1CC(O)(c1ccccc1)c1ccccc1 (centres undefined) | 44.8 | – | 28.9 | 33.5 | 20.8 | 34.9 | 33.1 | 33.5 | 35.8 | 34.4 | 39 | 64.5 | – | – | 38.8 | 41.1 | 31.3
12 | CCC1=NC(N/N=C/c2ccco2)=N/C1=C\c1ccco1 | – | > 100 | > 100 | > 100 | > 100 | > 100 | > 100 | > 100 | > 100 | > 100 | > 100 | > 100 | > 100 | > 100 | > 100 | > 100 | –
13 | COc1ccc(/C=N/NC(=O)CSc2nc(-c3ccccc3)c(-c3ccccc3)[nH]2)cc1OC | 77 | – | 52.7 | – | 69.7 | 33.8 | 55.5 | – | 76.7 | 83.9 | > 100 | 72.5 | – | 70 | 63.3 | 51.8 | 39.7
14 | Cc1[nH]c2[nH]c(=S)nc(NC(N)=S)c2c1Cc1ccccc1 | 76.4 | 36.6 | – | > 100 | > 100 | > 100 | > 100 | 69.1 | > 100 | > 100 | > 100 | > 100 | 60.6 | > 100 | > 100 | 55.3 | 77.4
15 | NC(=S)N/N=C(/CCN1CCCC1)CC(C1=C(O)C2=CCCCC2OC1=O)c1ccccc1 (centres undefined) | > 100 | – | > 100 | – | > 100 | > 100 | > 100 | – | > 100 | > 100 | > 100 | > 100 | – | > 100 | > 100 | > 100 | > 100
16 | O=C(O)c1ccc(C2=Nc3cccc4cccc(c34)N2)cc1 | > 100 | > 100 | > 100 | > 100 | > 100 | > 100 | > 100 | > 100 | > 100 | > 100 | > 100 | > 100 | > 100 | – | > 100 | > 100 | > 100
17 | Nc1nc(Cl)cc(NCC2(CO)CC=CC2)n1 | > 100 | > 100 | > 100 | > 100 | > 100 | – | > 100 | > 100 | – | > 100 | > 100 | > 100 | > 100 | – | > 100 | – | > 100
18 | CCOC(=O)COc1cc(-c2ccccc2)nc2cc(F)ccc12 | > 100 | > 100 | > 100 | > 100 | – | > 100 | > 100 | > 100 | > 100 | > 100 | > 100 | > 100 | – | > 100 | > 100 | > 100 | > 100
19 | COc1ccc(OC)c2c1ccc1c(C)c3ccccc3c(C)c12 | > 100 | > 100 | – | – | > 100 | > 100 | > 100 | > 100 | > 100 | > 100 | – | – | – | > 100 | – | > 100 | > 100
20 | FC(F)(F)c1nc2c(ccc3[nH]c4c(-c5ccccc5)nccc4c32)[nH]1 | > 100 | – | > 100 | – | > 100 | > 100 | > 100 | – | > 100 | > 100 | > 100 | > 100 | – | > 100 | > 100 | > 64.7 | > 100
21 | Cc1ccc(C2SCc3nc4ccccc4n32)cc1 (centres undefined) | 0.0817 | 5.01 | 6.33 | 12.5 | 22.6 | > 100 | > 100 | – | 24.3 | – | > 100 | > 100 | 7.17 | 9.04 | 85.8 | 38.8 | > 100
22 | CN(C(=O)C12C3(C(=O)O)C4C5(C(=O)O)C3C1(C(=O)O)C5C42C(=O)O)C(C)(C)C (centres undefined) | > 100 | > 100 | > 100 | > 100 | > 100 | > 100 | > 100 | > 100 | > 100 | > 100 | > 100 | > 100 | > 100 | > 100 | – | – | > 100
23 | CCOC(=O)CCC(NC(=O)CNC(=O)CNC(=O)C(CCC(=O)OCC)NC(=O)C(CCC(=O)OCC)NC(=O)C(CCC(=O)OCC)NC(=O)OCc1ccccc1)C(=O)NC(CCC(=O)OCC)C(=O)NC(CCC(=O)OCC)C(=O)OCC (centres undefined) (Cbz-E(OEt)E(OEt)E(OEt)GGE(OEt)E(OEt)E(OEt)-OEt; configuration not given here) | > 75 | > 75 | > 75 | > 75 | > 75 | > 75 | > 75 | > 75 | > 75 | > 75 | > 75 | > 75 | > 75 | – | > 75 | > 75 | –
24 | CCOC(=O)/C=C(\C(=O)OCC)n1cc(C)c(=O)n(Cc2cn(COCCOC(C)=O)nn2)c1=O | 36 | 28.2 | 93.2 | 67.4 | 26.9 | – | 31.1 | 50.8 | 29.8 | 55.4 | > 100 | 22.5 | 46.1 | – | > 100 | 18.9 | 27.6
